According to article PMC10823468, “Design, Synthesis, and Evaluation of New 1H-Benzo[d]imidazole Based PqsR Inhibitors as Adjuvant Therapy for Pseudomonas aeruginosa Infections” (Journal of Medicinal Chemistry, 2024):

Tests used:
PAO1-L biofilms = assay: Biofilm viability assay, method 1 (ciprofloxacin, LIVE/DEAD, CLSM); format: cell-based, Pseudomonas aeruginosa; settings: 6 and 24 h
Description: Biofilms are bacterial communities that are highly tolerant to antibiotics.[33] […] Therefore, pharmacological interference with the pqs machinery could sensitize PA biofilms to antibiotics.[34] To evaluate this effect, PAO1-L biofilms were grown for […] in the presence of 6f (method 1). Following treatment with the broad-spectrum antibiotic ciprofloxacin (Cip), the viability of biofilm bacteria was determined using LIVE/DEAD BacLight staining and confocal laser scanning microscopy (CLSM). The effect of 6f on biofilm viability as a single treatment or in combination with subinhibitory concentration of Cip was examined at two different time points (6 and 24 h after treatment) to establish whether this PqsR antagonist enhanced the activity of the antibiotic. […] It is noteworthy that the effect was greater at 6 h treatment compared with 24 h.
Figure 6 (A) Representative CLSM 3D Z-stack images of PAO1-L biofilms after 24 h growth with or without 6f and further treatment for 6 or 24 h with no treatment (control), 6f (10 μM), ciprofloxacin (Cip: 60 μg/mL), or a combination of 6f and Cip (10 μM and 60 μg/mL, respectively). Live bacteria are depicted in green (SYTO9 dye) and dead cells are shown in red color (propidium iodide stain). (B) Biofilm viability assay. Bar chart showing PAO1-L biofilm viability quantified after treatment with different conditions for 6 or 24 h. […]

[1] = tested on: A549 human lung epithelial carcinoma cell line; assay: A549 cytotoxicity assay (resazurin / alamar blue); format: cell-based; settings: at concentrations up to 100 μM (1, 50, 100 μM), 24 h
Description: Establishing the safety profile of new chemical entities is paramount for further drug development. […] The assay employed resazurin reduction, a sensitive fluorometric assay widely used as a standard methodology in drug discovery research.[35] This assay relies on the ability of living cells to reduce resazurin to the fluorescent compound, resorufin, which indicates the rate of the metabolic activity as a means to quantify cell viability.
Cell viability was assessed according to Nimesh et al.[51] on A549 adenocarcinomic human alveolar basal epithelial cell line. The viability of the A549 cell line was assessed after overnight incubation with three concentrations (1, 50, and 100 μM) of the corresponding compound using alamar blue (resazurin) dye. Cells were maintained in the Dulbecco’s Modified Essential Medium (DMEM) supplemented with 10% fetal bovine serum (FBS) and 1% penicillin–streptomycin–neomycin (PSN). After that, 100 μL of suspended cells with a final concentration (1 × 10^4 cells/wall) were seeded in 96-well plates with 100 μL of (1, 50, 100 μM) concentrations of the tested compound was dispensed in sextuplicate. […] The plates were further incubated for 4–6 h and the intensity of the fluorescence was measured using an excitation light of 510 nm and measuring the fluorescence output at 590 nm. The cell viability in each well was normalized to the DMSO reading.

## CC(C)n1c(NCC(O)COc2ccc(CC#N)cc2)nc2ccc(Cl)cc21 (stereo not drawn) [Compound 6f, 2-(4-(3-((6-Chloro-1-isopropyl-1H-benzo[d]imidazol-2-yl)amino)-2-hydroxypropoxy)phenyl) Acetonitrile]
PAO1-L biofilms; 6f 10 μM + Cip 60 μg/mL
  biofilm viability, combination with ciprofloxacin: significant potentiation of antibiotic activity
PAO1-L biofilms; 6f 10 μM alone
  biofilm viability, single treatment: no significant effect
[1]
  cytotoxicity for A549 cells: not cytotoxic
